Reference: patent US20030022821A1, “Bioactive peptides” (priority 1998, published 2003)
≈ marks a conversion by molar mass, not a printed value. Like-named read-outs stand apart in the source and are kept apart here. Square brackets hold non-standard residues; d marks the D form. Peptide text beside a SMILES is read from it. * marks the point of attachment. Trp(2-Pmc) = Cc1c(C)c(S(=O)(=O)c2[nH]c3ccccc3c2C[C@H](N)C(=O)O)c(C)c2c1OC(C)(C)CC2; Acm = CC(=O)NC*

Columns and labels:
[1] = system: Staphylococcus aureus ATCC 25923; format: cell-based
Procedure: (§1) The bacterial strains used were: Escherichia coli ATCC 25922 and Staphylococcus aureus ATCC 25923. All strains were stored at −70° C. The bacteria were grown in 2% Bacto Peptone water (Difco 1807-17-4). All tests were performed with bacteria in mid-logarithmic growth phase. Determination of the minimum inhibitory concentration (MIC) of the peptides for bacterial strains were performed in 1% Bacto Peptone water. A standard microdilution technique with an inoculum of 2×10^6 CFU/ml was used. All assays were performed in triplets. Since the peptides are positively charged and therefore could adhere to the plastic wells, we controlled the actual concentration of the peptides in the solution by HPLC. There was no difference between the concentration of the peptides before or after adding the solution to the plastic wells.

[2] = system: Escherichia coli ATCC 25922; format: cell-based
Procedure: as §1

Compound	MIC S. aureus ([1]; ATCC 25923) [µg/mL]	MIC E. coli ([2]; ATCC 25922) [µg/mL]	further results
CSCC[C@H](NC(=O)[C@H](CCCNC(=N)N)NC(=O)[C@H](Cc1c(S(=O)(=O)c2c(C)c(C)c3c(c2C)CCC(C)(C)O3)[nH]c2ccccc12)NC(=O)[C@H](CCC(N)=O)NC(=O)[C@H](C)NC(=O)[C@H](CCCNC(=N)N)NC(=O)[C@H](CCCNC(=N)N)NC(=O)[C@H](CSCNC(C)=O)NC(=O)[C@H](CCCCN)NC(=O)[C@@H](N)Cc1ccccc1)C(=O)N[C@@H](CCCCN)C(=O)N[C@@H](CCCCN)C(=O)N[C@@H](CC(C)C)C(=O)NCC(=O)N[C@@H](C)C(=O)O [LFB A6 PMC] (H-FKC(Acm)RRAQ[Trp(2-Pmc)]RMKKLGA-OH)	17.5 (≈ 7.89 µM)	25 (≈ 11.3 µM)	–
CSCC[C@H](NC(=O)[C@H](CCCNC(=N)N)NC(=O)[C@H](Cc1c[nH]c2ccccc12)NC(=O)[C@H](CCC(N)=O)NC(=O)[C@H](Cc1ccc(-c2ccccc2)cc1)NC(=O)[C@H](CCCNC(=N)N)NC(=O)[C@H](CCCNC(=N)N)NC(=O)[C@H](CSCNC(C)=O)NC(=O)[C@H](CCCCN)NC(=O)[C@@H](N)Cc1ccccc1)C(=O)N[C@@H](CCCCN)C(=O)N[C@@H](CCCCN)C(=O)N[C@@H](CC(C)C)C(=O)NCC(=O)N[C@@H](C)C(=O)O [LFB Bip6]	25 (≈ 11.9 µM)	25 (≈ 11.9 µM)	–
CSCC[C@H](NC(=O)[C@H](CCCNC(=N)N)NC(=O)[C@H](Cc1ccc(-c2ccccc2)cc1)NC(=O)[C@H](CCC(N)=O)NC(=O)[C@H](Cc1c[nH]c2ccccc12)NC(=O)[C@H](CCCNC(=N)N)NC(=O)[C@H](CCCNC(=N)N)NC(=O)[C@H](CSCNC(C)=O)NC(=O)[C@H](CCCCN)NC(=O)[C@@H](N)Cc1ccccc1)C(=O)N[C@@H](CCCCN)C(=O)N[C@@H](CCCCN)C(=O)N[C@@H](CC(C)C)C(=O)NCC(=O)N[C@@H](C)C(=O)O [LFB Bip8]	15 (≈ 7.13 µM)	15 (≈ 7.13 µM)	–
CSCC[C@H](NC(=O)[C@H](CCCNC(=N)N)NC(=O)[C@H](Cc1c[nH]c2ccccc12)NC(=O)[C@H](CCC(N)=O)NC(=O)[C@H](Cc1c[nH]c2ccccc12)NC(=O)[C@H](CCCNC(=N)N)NC(=O)[C@H](Cc1ccccc1)NC(=O)[C@H](CSCNC(C)=O)NC(=O)[C@H](CCCCN)NC(=O)[C@@H](N)CCCCN)C(=O)N[C@@H](CCCCN)C(=O)N[C@@H](CCCCN)C(=O)N[C@@H](CC(C)C)C(=O)NCC(=O)N[C@@H](C)C(=O)O [LFB F4K1] (H-KKC(Acm)FRWQWRMKKLGA-OH; N-terminus assumed)	–	–	MIC S. aureus ATCC 25923 ([1]; ATCC 25923): 200 µg/mL; MIC S. aureus ATCC 25923 ([1]; Table 1, value in brackets): 100 µM; MIC S. aureus ([1]; Table 12): 200 µg/mL (≈ 98.2 µM); MIC E. coli ATCC 25922 ([2]; ATCC 25922): 20 µg/mL; MIC E. coli ATCC 25922 ([2]; Table 1, value in brackets): 10 µM; MIC E. coli ([2]; Table 12): 20 µg/mL (≈ 9.82 µM)
CSCC[C@H](NC(=O)[C@H](CCCNC(=N)N)NC(=O)[C@H](Cc1c[nH]c2ccccc12)NC(=O)[C@H](CCC(N)=O)NC(=O)[C@H](Cc1c[nH]c2ccccc12)NC(=O)[C@H](CCCNC(=N)N)NC(=O)[C@H](CCCNC(=N)N)NC(=O)[C@H](CSCNC(C)=O)NC(=O)[C@H](CCCCN)NC(=O)[C@@H](N)CCCCN)C(=O)N[C@@H](CCCCN)C(=O)N[C@@H](CCCCN)C(=O)N[C@@H](CC(C)C)C(=O)NCC(=O)N[C@@H](C)C(=O)O [LFB K1] (H-KKC(Acm)RRWQWRMKKLGA-OH; N-terminus assumed)	–	–	MIC S. aureus ATCC 25923 ([1]; ATCC 25923): 100 µg/mL; MIC S. aureus ATCC 25923 ([1]; Table 1, value in brackets): 50 µM; MIC S. aureus ([1]; Table 12): 100 µg/mL (≈ 48.9 µM); MIC E. coli ATCC 25922 ([2]; ATCC 25922): 60 µg/mL; MIC E. coli ATCC 25922 ([2]; Table 1, value in brackets): 30 µM; MIC E. coli ([2]; Table 12): 60 µg/mL (≈ 29.3 µM)
CSCC[C@H](NC(=O)[C@H](CCCNC(=N)N)NC(=O)[C@H](Cc1c[nH]c2ccccc12)NC(=O)[C@H](CCC(N)=O)NC(=O)[C@H](Cc1c[nH]c2ccccc12)NC(=O)[C@H](CCC(N)=O)NC(=O)[C@H](Cc1ccc(O)cc1)NC(=O)[C@H](CSCNC(C)=O)NC(=O)[C@H](CCCCN)NC(=O)[C@@H](N)CO)C(=O)N[C@@H](CCCNC(=N)N)C(=O)N[C@@H](CCCCN)C(=O)N[C@@H](CC(C)C)C(=O)NCC(=O)N[C@@H](C)C(=O)O [LFGW8, H2N-Ser-Lys-Cys-Tyr-Gln-Trp-Gln-Trp-Arg-Met-Arg-Lys-Leu-Gly-Ala-COOH] (H-SKC(Acm)YQWQWRMRKLGA-OH)	–	–	MIC S. aureus ([1]; Table 4, unit assumed): > 1000 µg/mL; MIC E. coli ([2]; Table 4): 500 µg/mL (≈ 248 µM)
CSCC[C@H](NC(=O)[C@H](CC(N)=O)NC(=O)[C@H](Cc1c[nH]c2ccccc12)NC(=O)[C@H](CCC(N)=O)NC(=O)[C@H](Cc1c[nH]c2ccccc12)NC(=O)[C@H](CCC(N)=O)NC(=O)[C@H](Cc1ccccc1)NC(=O)[C@H](CSCNC(C)=O)NC(=O)[C@H](CCCCN)NC(=O)[C@@H](N)[C@@H](C)O)C(=O)N[C@@H](CCCNC(=N)N)C(=O)N[C@@H](CCCCN)C(=O)N[C@H](C(=O)N[C@@H](CCCNC(=N)N)C(=O)NCC(=O)O)C(C)C [LFHW8, H2N-Thr-Lys-Cys-Phe-Gln-Trp-Gln-Trp-Asn-Met-Arg-Lys-Val-Arg-Gly-COOH] (H-TKC(Acm)FQWQWNMRKVRG-OH)	–	–	MIC S. aureus ([1]; Table 4, unit assumed): > 1000 µg/mL; MIC E. coli ([2]; Table 4): 110 µg/mL (≈ 53.9 µM)
CSCC[C@H](NC(=O)[C@H](CCCNC(=N)N)NC(=O)[C@H](Cc1c[nH]c2ccccc12)NC(=O)[C@H](CCC(N)=O)NC(=O)[C@H](Cc1c[nH]c2ccccc12)NC(=O)[C@H](CCCNC(=N)N)NC(=O)[C@H](CC(C)C)NC(=O)[C@H](CSCNC(C)=O)NC(=O)[C@H](CCCCN)NC(=O)[C@H](C)N)C(=O)N[C@@H](CCCNC(=N)N)C(=O)N[C@@H](CCCCN)C(=O)N[C@@H](Cc1ccc(O)cc1)C(=O)NCC(=O)NCC(=O)O [LFM A1 R9 W8 Y13] (H-AKC(Acm)LRWQWRMRKYGG-OH; N-terminus and C-terminus assumed)	200 (≈ 99.5 µM)	50 (≈ 24.9 µM)	–
CSCC[C@H](NC(=O)[C@H](CCC(=O)O)NC(=O)[C@H](Cc1c[nH]c2ccccc12)NC(=O)[C@H](CCC(N)=O)NC(=O)[C@H](Cc1c[nH]c2ccccc12)NC(=O)[C@H](CCCNC(=N)N)NC(=O)[C@H](CC(C)C)NC(=O)[C@H](CSCNC(C)=O)NC(=O)[C@H](CCCCN)NC(=O)[C@H](C)N)C(=O)N[C@@H](CCCNC(=N)N)C(=O)N[C@@H](CCCCN)C(=O)N[C@@H](Cc1ccc(O)cc1)C(=O)NCC(=O)NCC(=O)O [LFM A1 W8 Y13] (H-AKC(Acm)LRWQWEMRKYGG-OH; N-terminus and C-terminus assumed)	>1000	500 (≈ 252 µM)	–

More lines, main results first:

MIC S. aureus ([1]; ATCC 25923) [µg/mL]	MIC E. coli ([2]; ATCC 25922) [µg/mL]	Compound	further results
>200	120 (≈ 60.6 µM)	CSCC[C@H](NC(=O)[C@H](CCCNC(=N)N)NC(=O)[C@H](Cc1c[nH]c2ccccc12)NC(=O)[C@H](CCC(N)=O)NC(=O)[C@H](Cc1c[nH]c2ccccc12)NC(=O)[C@H](C)NC(=O)[C@H](CCCNC(=N)N)NC(=O)[C@H](CSCNC(C)=O)NC(=O)[C@H](CCCCN)NC(=O)[C@@H](N)Cc1ccccc1)C(=O)N[C@@H](CCCCN)C(=O)N[C@@H](CCCCN)C(=O)N[C@@H](CC(C)C)C(=O)NCC(=O)N[C@@H](C)C(=O)O [LFB A5] (H-FKC(Acm)RAWQWRMKKLGA-OH)	–
>200	55 (≈ 27.8 µM)	CSCC[C@H](NC(=O)[C@H](C)NC(=O)[C@H](Cc1c[nH]c2ccccc12)NC(=O)[C@H](CCC(N)=O)NC(=O)[C@H](Cc1c[nH]c2ccccc12)NC(=O)[C@H](CCCNC(=N)N)NC(=O)[C@H](CCCNC(=N)N)NC(=O)[C@H](CSCNC(C)=O)NC(=O)[C@H](CCCCN)NC(=O)[C@@H](N)Cc1ccccc1)C(=O)N[C@@H](CCCCN)C(=O)N[C@@H](CCCCN)C(=O)N[C@@H](CC(C)C)C(=O)NCC(=O)N[C@@H](C)C(=O)O [LFB A9] (H-FKC(Acm)RRWQWAMKKLGA-OH)	–
>200	140 (≈ 69.8 µM)	CC(=O)NCSC[C@H](NC(=O)[C@H](CCCCN)NC(=O)[C@@H](N)Cc1ccccc1)C(=O)N[C@@H](CCCNC(=N)N)C(=O)N[C@@H](CCCNC(=N)N)C(=O)N[C@@H](Cc1c[nH]c2ccccc12)C(=O)N[C@@H](CCC(N)=O)C(=O)N[C@@H](Cc1c[nH]c2ccccc12)C(=O)N[C@@H](CCCNC(=N)N)C(=O)N[C@@H](C)C(=O)N[C@@H](CCCCN)C(=O)N[C@@H](CCCCN)C(=O)N[C@@H](CC(C)C)C(=O)NCC(=O)N[C@@H](C)C(=O)O [LFB A10] (H-FKC(Acm)RRWQWRAKKLGA-OH)	–
>200	70 (≈ 34.9 µM)	CSCC[C@H](NC(=O)[C@H](CCCNC(=N)N)NC(=O)[C@H](Cc1c[nH]c2ccccc12)NC(=O)[C@H](CCC(N)=O)NC(=O)[C@H](Cc1c[nH]c2ccccc12)NC(=O)[C@H](CCCNC(=N)N)NC(=O)[C@H](CCCNC(=N)N)NC(=O)[C@H](CSCNC(C)=O)NC(=O)[C@H](CCCCN)NC(=O)[C@@H](N)Cc1ccccc1)C(=O)N[C@@H](C)C(=O)N[C@@H](CCCCN)C(=O)N[C@@H](CC(C)C)C(=O)NCC(=O)N[C@@H](C)C(=O)O [LFB A11] (H-FKC(Acm)RRWQWRMAKLGA-OH)	–
>200	50 (≈ 24.9 µM)	CSCC[C@H](NC(=O)[C@H](CCCNC(=N)N)NC(=O)[C@H](Cc1c[nH]c2ccccc12)NC(=O)[C@H](CCC(N)=O)NC(=O)[C@H](Cc1c[nH]c2ccccc12)NC(=O)[C@H](CCCNC(=N)N)NC(=O)[C@H](CCCNC(=N)N)NC(=O)[C@H](CSCNC(C)=O)NC(=O)[C@H](CCCCN)NC(=O)[C@@H](N)Cc1ccccc1)C(=O)N[C@@H](CCCCN)C(=O)N[C@@H](C)C(=O)N[C@@H](CC(C)C)C(=O)NCC(=O)N[C@@H](C)C(=O)O [LFB A12] (H-FKC(Acm)RRWQWRMKALGA-OH)	–
>200	50 (≈ 24.7 µM)	CSCC[C@H](NC(=O)[C@H](CCCNC(=N)N)NC(=O)[C@H](Cc1c[nH]c2ccccc12)NC(=O)[C@H](CCC(N)=O)NC(=O)[C@H](Cc1c[nH]c2ccccc12)NC(=O)[C@H](CCCNC(=N)N)NC(=O)[C@H](CCCNC(=N)N)NC(=O)[C@H](CSCNC(C)=O)NC(=O)[C@H](CCCCN)NC(=O)[C@@H](N)Cc1ccccc1)C(=O)N[C@@H](CCCCN)C(=O)N[C@@H](CCCCN)C(=O)N[C@@H](C)C(=O)NCC(=O)N[C@@H](C)C(=O)O [LFB A13] (H-FKC(Acm)RRWQWRMKKAGA-OH)	–
